Source: US8389247B2, “Physiogenomic method for predicting diabetes and metabolic syndromes induced by psychotropic drugs” (priority 2006, dated 2013)

Legend:
[1] = Outcome variables of patients on each psychotropic drug broken down by demographic factors (Covariates tables); format: in vivo, human
Excerpt: Various SNPs associated with, for example, the observation of various parameters of metabolic syndromes in patients on psychotropic drugs were screened. The endpoints analyzed were the blood levels of LDL, HDL, and glucose; blood pressure; body mass index; waist circumference; and metabolic syndromes index. The physiogenomic model was developed using the following procedure: 1) Establish a covariate model using only the demographic and clinical variables, 2) Screen for associated genetic markers by testing each SNP against the unexplained residual of the covariate model, and 3) Establish a revised model incorporating the significant associations from the SNP screen.

[2] = cited from earlier work

Compound: Cc1cc2c(s1)Nc1ccccc1N=C2N1CCN(C)CC1 [olanzapine]
- BM (body mass) ([1]; Age 20-30): 87.06
- Glucose (blood glucose level) ([1]; Age 20-30): 88.65
- HDL (HDL cholesterol level) ([1]; Age 20-30): 48.55
- LDL (LDL cholesterol level) ([1]; Age 20-30): 104.10
- Log (TG) (triglyceride level) ([1]; Age 20-30): 5.086
- TC (total cholesterol level) ([1]; Age 20-30): 189.00
- Waist (waist circumference) ([1]; Age 20-30): 99.18
- dBP (diastolic blood pressure) ([1]; Age 20-30): 75.15
- sBP (systolic blood pressure) ([1]; Age 20-30): 118.20
- BM (body mass) ([1]; Age 30-40): 83.17
- Glucose (blood glucose level) ([1]; Age 30-40): 92.29
- HDL (HDL cholesterol level) ([1]; Age 30-40): 47.68
- LDL (LDL cholesterol level) ([1]; Age 30-40): 103.73
- Log (TG) (triglyceride level) ([1]; Age 30-40): 5.168
- TC (total cholesterol level) ([1]; Age 30-40): 189.82
- Waist (waist circumference) ([1]; Age 30-40): 97.82
- dBP (diastolic blood pressure) ([1]; Age 30-40): 74.14
- sBP (systolic blood pressure) ([1]; Age 30-40): 117.32
- BM (body mass) ([1]; Age 40-50): 79.34
- Glucose (blood glucose level) ([1]; Age 40-50): 92.47
- HDL (HDL cholesterol level) ([1]; Age 40-50): 52.40
- LDL (LDL cholesterol level) ([1]; Age 40-50): 107.00
- Log (TG) (triglyceride level) ([1]; Age 40-50): 4.968
- TC (total cholesterol level) ([1]; Age 40-50): 202.00
- Waist (waist circumference) ([1]; Age 40-50): 98.32
- dBP (diastolic blood pressure) ([1]; Age 40-50): 78.10
- sBP (systolic blood pressure) ([1]; Age 40-50): 119.10
- BM (body mass) ([1]; Age 50-60): 95.73
- Glucose (blood glucose level) ([1]; Age 50-60): 86.67
- HDL (HDL cholesterol level) ([1]; Age 50-60): 49.67
- LDL (LDL cholesterol level) ([1]; Age 50-60): 104.00
- Log (TG) (triglyceride level) ([1]; Age 50-60): 5.373
- TC (total cholesterol level) ([1]; Age 50-60): 204.67
- Waist (waist circumference) ([1]; Age 50-60): 105.80
- dBP (diastolic blood pressure) ([1]; Age 50-60): 87.00
- sBP (systolic blood pressure) ([1]; Age 50-60): 136.33
- BM (body mass) ([1]; Age 70-80): 44.40
- Glucose (blood glucose level) ([1]; Age 70-80): 92.00
- HDL (HDL cholesterol level) ([1]; Age 70-80): 68.00
- LDL (LDL cholesterol level) ([1]; Age 70-80): 94.00
- Log (TG) (triglyceride level) ([1]; Age 70-80): 4.159
- TC (total cholesterol level) ([1]; Age 70-80): 174.0
- Waist (waist circumference) ([1]; Age 70-80): 65.00
- dBP (diastolic blood pressure) ([1]; Age 70-80): 66.00
- sBP (systolic blood pressure) ([1]; Age 70-80): 100.0
- BM (body mass) ([1]; Age <20): 65.00
- Glucose (blood glucose level) ([1]; Age <20): 109.00
- HDL (HDL cholesterol level) ([1]; Age <20): 28.00
- LDL (LDL cholesterol level) ([1]; Age <20): 68.00
- Log (TG) (triglyceride level) ([1]; Age <20): 4.787
- TC (total cholesterol level) ([1]; Age <20): 120.00
- Waist (waist circumference) ([1]; Age <20): 96.00
- dBP (diastolic blood pressure) ([1]; Age <20): 77.00
- sBP (systolic blood pressure) ([1]; Age <20): 109.00
- BM (body mass) ([1]; All patients on the drug): 82.90
- Glucose (blood glucose level) ([1]; All patients on the drug): 91.22
- HDL (HDL cholesterol level) ([1]; All patients on the drug): 49.45
- LDL (LDL cholesterol level) ([1]; All patients on the drug): 104.11
- Log (TG) (triglyceride level) ([1]; All patients on the drug): 5.072
- TC (total cholesterol level) ([1]; All patients on the drug): 192.60
- Waist (waist circumference) ([1]; All patients on the drug): 98.21
- dBP (diastolic blood pressure) ([1]; All patients on the drug): 76.12
- sBP (systolic blood pressure) ([1]; All patients on the drug): 118.58
- BM (body mass) ([1]; Gender female): 82.39
- Glucose (blood glucose level) ([1]; Gender female): 97.53
- HDL (HDL cholesterol level) ([1]; Gender female): 51.89
- LDL (LDL cholesterol level) ([1]; Gender female): 118.94
- Log (TG) (triglyceride level) ([1]; Gender female): 4.985
- TC (total cholesterol level) ([1]; Gender female): 212.16
- Waist (waist circumference) ([1]; Gender female): 100.74
- dBP (diastolic blood pressure) ([1]; Gender female): 75.84
- sBP (systolic blood pressure) ([1]; Gender female): 116.79
- BM (body mass) ([1]; Gender male): 83.10
- Glucose (blood glucose level) ([1]; Gender male): 88.98
- HDL (HDL cholesterol level) ([1]; Gender male): 48.48
- LDL (LDL cholesterol level) ([1]; Gender male): 98.54
- Log (TG) (triglyceride level) ([1]; Gender male): 5.107
- TC (total cholesterol level) ([1]; Gender male): 184.85
- Waist (waist circumference) ([1]; Gender male): 97.21
- dBP (diastolic blood pressure) ([1]; Gender male): 76.23
- sBP (systolic blood pressure) ([1]; Gender male): 119.29
- BM (body mass) ([1]; Heritage AA): 87.38
- Glucose (blood glucose level) ([1]; Heritage AA): 98.31
- HDL (HDL cholesterol level) ([1]; Heritage AA): 54.00
- LDL (LDL cholesterol level) ([1]; Heritage AA): 109.14
- Log (TG) (triglyceride level) ([1]; Heritage AA): 5.060
- TC (total cholesterol level) ([1]; Heritage AA): 197.57
- Waist (waist circumference) ([1]; Heritage AA): 96.82
- dBP (diastolic blood pressure) ([1]; Heritage AA): 77.00
- sBP (systolic blood pressure) ([1]; Heritage AA): 119.79
- BM (body mass) ([1]; Heritage Cauc.): 81.98
- Glucose (blood glucose level) ([1]; Heritage Cauc.): 89.24
- HDL (HDL cholesterol level) ([1]; Heritage Cauc.): 48.16
- LDL (LDL cholesterol level) ([1]; Heritage Cauc.): 103.53
- Log (TG) (triglyceride level) ([1]; Heritage Cauc.): 5.115
- TC (total cholesterol level) ([1]; Heritage Cauc.): 193.30
- Waist (waist circumference) ([1]; Heritage Cauc.): 98.17
- dBP (diastolic blood pressure) ([1]; Heritage Cauc.): 75.48
- sBP (systolic blood pressure) ([1]; Heritage Cauc.): 118.38
- BM (body mass) ([1]; Heritage Hisp.): 110.91
- Glucose (blood glucose level) ([1]; Heritage Hisp.): 91.00
- HDL (HDL cholesterol level) ([1]; Heritage Hisp.): 47.00
- LDL (LDL cholesterol level) ([1]; Heritage Hisp.): 147.00
- Log (TG) (triglyceride level) ([1]; Heritage Hisp.): 4.700
- TC (total cholesterol level) ([1]; Heritage Hisp.): 216.00
- Waist (waist circumference) ([1]; Heritage Hisp.): 144.00
- dBP (diastolic blood pressure) ([1]; Heritage Hisp.): 91.00
- sBP (systolic blood pressure) ([1]; Heritage Hisp.): 132.00
- BM (body mass) ([1]; Heritage Other): 60.45
- Glucose (blood glucose level) ([1]; Heritage Other): 93.50
- HDL (HDL cholesterol level) ([1]; Heritage Other): 51.00
- LDL (LDL cholesterol level) ([1]; Heritage Other): 61.50
- Log (TG) (triglyceride level) ([1]; Heritage Other): 4.263
- TC (total cholesterol level) ([1]; Heritage Other): 128.50
- Waist (waist circumference) ([1]; Heritage Other): 86.00
- dBP (diastolic blood pressure) ([1]; Heritage Other): 78.50
- sBP (systolic blood pressure) ([1]; Heritage Other): 108.50
- BM ([1]; patients on the named drug): 82.90
- BMI ([1]; patients on the named drug): 27.12
- Glucose ([1]; patients on the named drug): 91.22
- HDL ([1]; patients on the named drug): 49.45
- LDL ([1]; patients on the named drug): 104.11
- Log (TG) ([1]; patients on the named drug): 5.072
- MSI ([1]; patients on the named drug): −0.1290
- TC ([1]; patients on the named drug): 192.60
- Waist ([1]; patients on the named drug): 98.21
- dBP ([1]; patients on the named drug): 76.12
- sBP ([1]; patients on the named drug): 118.58
- treated patients with induced weight gain, diabetes and other metabolic derangements [2]: 50%
